Results reported in ChEMBL document CHEMBL4689842, “EUbOPEN Chemogenomics Library wave 1” (2021).

Experiments:
Type in all cases: toxicity, cell-based
HEK-293T = experiment: Incucyte cell viability with HEK293T; conditions: human, 10 µM, compound concentration 10 uM
U2OS = experiment: Incucyte cell viability with U2OS; conditions: human, 10 µM, compound concentration 10 uM
Fibroblast = experiment: Incucyte cell viability with human fibroblast; conditions: 10 µM, compound concentration 10 uM
[1] = 0 h, replicate number 1, timepoint 0 hours
[2] = 6 h, replicate number 1, timepoint 6 hours
[3] = 6 h, replicate number 2, timepoint 6 hours
[4] = 12 h, replicate number 1, timepoint 12 hours
[5] = 12 h, replicate number 2, timepoint 12 hours
[6] = 18 h, replicate number 1, timepoint 18 hours
[7] = 24 h, replicate number 1, timepoint 24 hours
[8] = 24 h, replicate number 2, timepoint 24 hours
[9] = 0 h, replicate number 2, timepoint 0 hours
[10] = 18 h, replicate number 2, timepoint 18 hours
Also: filed as whole numbers so only -1 and 0 and 1 occur.

SMILES | Growth Rate (HEK-293T; [1]) | Growth Rate (HEK-293T; [2]) | Growth Rate (HEK-293T; [4]) | Growth Rate (HEK-293T; [6]) | Growth Rate (HEK-293T; [7]) | Growth Rate (U2OS; [1]) | Growth Rate (U2OS; [3]) | Growth Rate (U2OS; [4]) | Growth Rate (U2OS; [5]) | Growth Rate (U2OS; [6]) | Growth Rate (U2OS; [7]) | Growth Rate (U2OS; [8]) | Growth Rate (Fibroblast; [1]) | Growth Rate (Fibroblast; [2]) | Growth Rate (Fibroblast; [3]) | Growth Rate (Fibroblast; [4]) | Growth Rate (Fibroblast; [6]) | Growth Rate (Fibroblast; [7]) | Growth Rate (HEK-293T; [9]) | Growth Rate (U2OS; [2]) | other results
O=C(O)CC/C=C\C[C@@H]1CO[C@H](c2ccccc2Cl)O[C@@H]1c1ccccc1O | 0 | 1 | 1 | 1 | 1 | 0 | 0 | 1 | 0 | 0 | 1 | 0 | 0 | 1 | 0 | 1 | 1 | 1 |  |  | Growth Rate (HEK-293T; [3]): 0; Growth Rate (HEK-293T; [5]): 0
CN1C[C@H](Nc2cnn(C)c(=O)c2Br)C[C@H](c2ccccc2)C1 | 1 | 0 | 0 | 0 | 0 |  |  | 1 |  | 1 | 1 |  | 0 | 0 |  | 1 | 1 | 1 | 0 | 0 | Growth Rate (U2OS; [9]): 0; Growth Rate (Fibroblast; [5]): 0; Growth Rate (Fibroblast; [10]): 0; Growth Rate (Fibroblast; [8]): 0
CN(C)C(=O)/C(C#N)=C/c1ccc(-c2nc3cnc4c(ccn4C)c3n2C2CCCCC2)o1 |  | 0 | 0 | 0 | 0 | 0 | 1 | 0 | 1 | 0 | 1 |  |  | 0 | 1 | 0 | 0 | 0 |  | 0 | Growth Rate (U2OS; [10]): 1
CCCOc1ccc([C@H]2[C@H](C(=O)O)[C@@H](c3ccc4c(c3)OCO4)CN2CC(=O)Nc2c(CC)cccc2CC)cc1 [A-192621] | 0 | 0 | 0 | 0 | 0 |  |  | 0 |  | 0 | 0 | 1 | 0 | 1 | 0 | 1 | 1 | 1 |  | 0 | Growth Rate (HEK-293T; [10]): 1; Growth Rate (U2OS; [10]): 1; Growth Rate (Fibroblast; [9]): 1
O=C(O)C1CN(Cc2ccc(OCc3ccc(Cl)c(Cl)c3)cc2)C1 |  | 0 | 0 | 0 | 0 | 0 | 0 | 1 | 0 | 0 | 1 | 0 | 1 | 0 |  | 0 | 0 | 0 | 0 |  | 
O=C(NCc1ncc(C(F)(F)F)cc1Cl)c1ccc2c(c1)C1(CCS(=O)(=O)CC1)[C@@H](C1CC1)N2S(=O)(=O)c1ccc(F)cc1 [BAY-786] | 0 | 1 | 0 | 0 | 0 | 0 | 0 | 1 |  | 1 | 0 |  | 0 | 1 |  | 1 | 1 | 1 |  |  | Growth Rate (HEK-293T; [5]): 1; Growth Rate (HEK-293T; [10]): 1; Growth Rate (HEK-293T; [8]): 1; Growth Rate (U2OS; [10]): 0; Growth Rate (Fibroblast; [9]): 1
S=C=Nc1cccc(NC(=S)NCCCCNC(=S)Nc2cccc(N=C=S)c2)c1 |  | 0 | 0 | 0 | 0 | 0 | 0 | 1 | 0 | 0 | 0 |  | 0 | 0 |  | 0 | 0 | 0 | 0 |  | Growth Rate (HEK-293T; [3]): 1
